According to US9163018B2, “Method of treatment of age-related macular degeneration (AMD)” (Prana Biotechnology Limited, priority 2006, dated 2015):
Like-named read-outs stand apart in the source and are kept apart here.

Experiments:
Aβ deposits = conditions: 9 weeks; for Tg Mice % difference from control in Amyloid plaque abundance / Tg Mice % difference from control in insoluble brain amyloid burden / Tg Mice % difference from control in soluble brain amyloid burden: daily oral gavage 30 mg/kg, 13-14 months old transgenic mice
[1] = target: T1, Abeta:Zn (25:50 μM) Synthetic Aggregations (Homo sapiens, UniProt P05067); assay: Disaggregation of Abeta:Zn synthetic aggregates (ThT fluorescence); type: biochemical; conditions: for Disaggregation % Aggregate reduction at 5 μM: 5 μM test compound; for EC50: Abeta:Zn 25:50 μM aggregates
T1 construct: PB Compound Mediated Dissolution of Aggregated Abeta 1-42; purchased Keck Laboratory, Yale University School of Medicine
T1 sequence (P05067 672-713 limits assumed): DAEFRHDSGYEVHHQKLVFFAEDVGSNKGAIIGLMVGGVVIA
Outline: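 Abeta1-42 (25 μM) with ZnCl2 (50 μM) and ThT (50 μM) in PBS pH 6.6 was preaggregated 24 h at 37 degrees with rotation. Aggregates were then exposed to compound (final 1-50 μM, DMSO) for 2 h at 37 degrees. ThT fluorescence was read at ex 450/em 480 nm.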

[2] = test system: primary cortical neuronal cultured cells; assay: Test compound cytotoxicity, MTS assay, primary cortical neuronal cultures; type: cell-based, mouse; conditions: for Cytotox (% viable) Neuronal cells at 1 μM: 1 μM test compound; for Cytotox (% viable) Neuronal cells at 10 μM: 10 μM test compound
Outline: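 Primary cortical neurons were cultured five days in Neurobasal/B27, then exposed on day six to compounds (from 2.5 mM DMSO stocks) in medium minus antioxidants, in triplicate for 4 days at 37° C. Viability was measured by MTS, 2 h at 37° C, absorbance at 560 nm.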

Aβ 1-42 = target: T2, Aβ 1-42 (Homo sapiens, UniProt P05067); assay: Fluorometric H2O2 assay (inhibition of Abeta H2O2 production); type: biochemical; conditions: concentration required to inhibit 50% of Abeta H2O2 production; read-out: H2O2 IC50
T2 construct: The reaction solutions contained Aβ 1-42 at concentrations
T2 sequence (P05067 672-713 limits assumed): as above
Outline: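 Copper-dependent Aβ H2O2 production measured fluorometrically with deacetylated dichlorofluorescein plus HRP in PBS, pH 7.4. Incubation 60 min at 37 C, test compound included in wells. H2O2 quantified against H2O2 standards.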

[3] = E Log D, chromatographic method; type: physicochemical; conditions: pH 7.4
Protocol: Effective Log D values were measured using a chromatographic method employing a SUPELCOSIL LC-ABZ column using an octanol saturated mobile phase at pH 7.4.

[4] = Mice plasma concentration after oral dose; type: in vivo; conditions: for Mice plasma concentration: 30 min to 4 h after single or repeat oral dose of 30 mg/kg
[5] = test system: Abeta in extract of post-mortem human AD brain tissue; assay: BAS: human brain amyloid solubilization assay; type: biochemical; conditions: max effect across the concentration range, referenced to baseline PBS
Outline: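 Plaque-bearing post-mortem AD cortex homogenised in ice-cold PBS pH 7.4; soluble Aβ in 100,000×g supernatant, insoluble Aβ from resuspended pellet. Fractions run on Tris-Tricine SDS-PAGE, immunoblotted with W02, densitometry against synthetic Aβ40 standards.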

[6] = test system: metal ions in retinal drusen; assay: Post mortem retina screening, ZP1 zinc labeling of Bruch membrane; conditions: 15 hours incubation; TPEN 100 μM, PB-1033 100 and 250 μM; 10 μM ZP1
Protocol: Post Mortem Screening The BAS assay is adopted for post mortem retina. Using a trephine, 6 mm diameter regions of peripheral retina from frozen donor eyes are dissected. Following defrosting, the neuronal retina and the RPE cells are removed by gentle agitation in PBS buffer. Following removal of the RPE cells, strips of the Bruch membrane are cut from the eye. 4 samples are prepared: 1) Control […] Samples are then washed 3 times and the labeling visualized using a fluorescence and confocal microscope. A repeat of this procedure is performed with the exception that samples are incubated for a period of 15 hours before washing to determine differential metal binding over this longer period. The test results are in the form of fluorescence imaging from a confocal microscope of the 4 samples tested in this Example after 15 hours of sample incubation. […] Fluorescence microscopic photographs (which are in colour) are available upon request from the […].

[7] = mouse, in vivo, 10 days
[8] = test system: M17 human neuroblastoma cells; assay: Cytotoxicity, M17 human neuroblastoma cells; type: cell-based; conditions: for Cytotox (% viable) M17 cells at 1 μM: 1 μM test compound; for Cytotox (% viable) M17 cells at 10 μM: 10 μM test compound
Protocol: Assay 3. MTS Assay for Cell Viability
Cell viability is determined using the MTS assay. Culture medium is replaced with fresh neurobasal medium plus B27 supplements minus antioxidants. 1/10th volume MTS solution (Cell Titre 96 Aqueous One, Promega Corporation) and incubated at 37° C., 2 hrs. 200 microliter aliquots are measured with a spectrophotometer at 560 nm.

[9] = Toxicity, visual observations in mice; conditions: duration and visual observations
[10] = test system: dityrosine oligomerization; assay: CuTy: inhibition of dityrosine oligomerization; type: biochemical; conditions: referenced to in-house standard (set as 100% inhibition)

Row | Compound | Tg Mice % difference from control in Amyloid plaque abundance (Aβ deposits) | Tg Mice % difference from control in insoluble brain amyloid burden (Aβ deposits) | Tg Mice % difference from control in soluble brain amyloid burden (Aβ deposits) | Disaggregation % Aggregate reduction at 5 μM [1] [%] | EC50 [1] [µM] | Cytotox (% viable) Neuronal cells at 1 μM [2] [%] | Cytotox (% viable) Neuronal cells at 10 μM [2] [%] | IC50 (Aβ 1-42) [µM] | ElogD (E) [3] | Mice plasma concentration [4] | BAS max effect [5] [%] | ZP1 (zinc sensor) labeling of post mortem Bruch membrane [6] | Toxicity at 30 mg/kg [7] | Cytotox (% viable) M17 cells at 1 μM [8] [%] | Cytotox (% viable) M17 cells at 10 μM [8] [%] | Toxicity at 30 mg/kg [9] | CuTy % inhibition of dityrosine oligomerization [10] | Tg Mice effect on brain amyloid burden and plaque at 10 mg/kg (Aβ deposits; daily oral gavage 10 mg/kg) | Toxicity at 10 mg/kg ([9]; 10 mg/kg) | Mice plasma concentration at 10 mg/kg ([4]; oral dose 10 mg/kg)
1 | O=C(NCCc1c[nH]cn1)c1ccc2c(Cl)cc(Cl)c(O)c2n1 [PB 1038] | Decrease | Decrease | Increase | 51.3 | 4.85 | 91 | 84 | 0.26 | 2.92 | Up to 2694 ng/ mL ng/mL | 627 |  |  |  |  |  |  |  |  | 
2 | c1ccc(CN(CCN(Cc2ccccn2)Cc2ccccn2)Cc2ccccn2)nc1 [TPEN, reference compound] |  |  |  |  |  |  |  |  |  |  |  | inhibited ZP1 labeling |  |  |  |  |  |  |  | 
3 | CCCCc1cnc2c(O)c(I)ccn2c1=O [PB 1145] |  |  |  | 28 | 7.2 |  |  | 0.66 |  |  |  |  | 10 days, 2/4 death | 101.7 | 58.7 |  |  |  |  | 
4 | O=C(NCc1ccc(F)cc1)c1cnc2c(O)c(I)ccn2c1=O [PB 1158] |  |  |  | 10 | > 20 |  |  | 0.99 |  |  |  |  | 7 days, 4/4 deaths | 104.7 | 56 |  |  |  |  | 
5 | O=c1c2ccc(I)c(O)c2ncn1-c1ccc(F)cc1F [PB 1157] |  |  |  | 45 | 8.1 |  |  | 0.38 |  |  |  |  | 6 days, 2/4 deaths | 90.3 | 80.3 |  |  |  |  | 
6 | CCn1cnc2c(O)c(I)cc(Cl)c2c1=O [PB 1138] |  |  |  | 53 | 4.7 |  |  | 0.3 |  | Up to 1802 ng/ mL ng/mL |  |  | 10 days, 2/4 deaths | 99.7 | 68.2 |  |  |  |  | 
7 | CCCc1cnc2c(O)cccn2c1=O [PB 1149] | −45% | No change | No change | 49 | 5 | 86.2 | 12.4 | 0.3 |  | Up to 690 ng/ml ng/mL |  |  |  | 79.1 | 45.2 | 10 days, none | CuTy: 95% inhibition |  |  | 
8 | CCn1cnc2c(O)c(I)ccc2c1=S [PB 1168] |  |  |  | 70 | 1.11 |  |  | 0.4 |  | Up to 400 ng/ ml ng/mL |  |  | 10 days, none, 1/4 mild signs | 85.7 | 43 |  |  |  |  | 
9 | CCCCNC(=O)c1cnc2c(O)c(I)ccn2c1=O [PB 1160] | decrease | No change | −25% | 56.8 | 4.05 |  |  | 0.75 |  | Up to 27,598 ng/mL |  |  |  | 85.3 | 63.4 | 10 days, none | CuTy: 95% inhibition |  |  | 
10 | CC(C)n1cnc2c(O)c(I)ccc2c1=O [PB 1153] |  |  |  | 53 | 4.7 |  |  | 0.32 |  | Up to 277 ng/ml ng/mL |  |  | 10 days, 1/4 deaths |  |  |  |  |  |  | 
11 | O=c1c2ccc(I)c(O)c2ncn1CC1CC1 [PB 1120] | Decrease | No change | No change | 47.5 | 5.6 |  |  | 0.28 |  | Up to 2508 ng/ mL ng/mL |  |  |  | 106.9 | 62 | 10 days, none | CuTy: 25% inhibition |  |  | 
12 | CCc1cnc2c(O)c(I)ccn2c1=O [PB 1127] |  |  |  | 55 | 4.5 |  |  | 0.28 |  |  |  |  |  | 82.5 | 23.3 |  | 25% inhibit | At 10 mg/kg No effect | At 10 mg/kg 10 days, none | At 10 mg/kg: Up to 7082 ng/ mL ng/mL
13 | Nc1cc(Cn2cnc3c(O)c(Cl)cc(Cl)c3c2=O)ccn1 [PB 1250] |  |  |  |  |  |  |  | 0.48 |  |  |  |  | 10 days, 1/4 deaths | 114.8 | 100.7 |  | CuTy: 80% inhibition |  |  | 
14 | CC(C)c1cnc2c(O)c(I)ccn2c1=O [PB 1142] |  |  |  | 42 | 7.1 |  |  | 0.37 |  |  |  |  | 10 days, 1/4 death | 96.7 | 44.2 |  |  |  |  | 
15 | CCCCc1cnc2c(O)cccn2c1=S [PB 1148] |  |  |  | 70 | 1.55 |  |  | 0.41 |  | Up to 57 ng/ml ng/mL |  |  | 7 days, 2/4 deaths |  |  |  |  |  |  | 
